The text below walks through data of patent US5405831A, “Treatment of bone disorders” (Amylin Pharmaceuticals, Inc., priority 1989, dated 1995).

The subject of one series is isolated osteoclasts. The series can be described thus: functional responses of isolated osteoclasts (motility, cytosolic calcium, retraction). Format: cell-based. The source says:
Thus, it appears that osteoclast activity may be restrained via two receptor types; calcitonin acts at both while amylin acts mainly via only one, reducing motility, reducing resorption and probably acting via the second messenger cAMP (Zaidi et. al. 1990, J. Endocrinol 126, 473-481.

Series [1] deals with rat osteoclasts. The settings on record: Zaidi et al. 1988; cited from earlier work.
A further series deals with rabbit. The following applies: cited from earlier work.
A further series relates to chick. The following applies: higher doses; cited from earlier work.
Series [2] concerns rat osteoclasts. The series can be described thus: bone resorption assay (disaggregated rat osteoclasts on human cortical bone slices). The following applies: osteoclasts counted on hormone-treated versus control bone slices.
Method: Following incubation (37° C.; 15 minutes), the bone slices were removed, washed gently in Minimal Essential Medium with FCS (10%, v/v) (MEM/FCS) and placed in separate wells (each well contained 5-6 slices and 900 μl MEM/FCS). Either one or two homogeneous suspensions of osteoclasts were used for each experiment. When two suspensions were used, the experiment was divided into two blocks, each of which included all treatments and one suspension. After further incubation (37° C., 10% humidified CO2, 10 minutes), 100 μl of MEM/FCS containing the test substance was added. Finally, bone slices were incubated overnight (37° C., 10% humidified CO2, 18 hours) and quantified in terms of cell numbers and bone resorption. After fixation in glutaraldehyde, cells were stained with toluidine blue and examined by transmitted light microscopy. In order to rule out toxic effects, osteoclasts were counted on three slices for every variable and their numbers were then compared on hormone-treated and control bone slices. […] Osteoclastic excavations, each defined by a continuous border within an area of unresorbed bone were counted. The area of bone surface resorbed was calculated by tracing the outline of the concavities into an image processor (Sight Systems, Newbury, Berks).

Like-named read-outs stand apart in the source and are kept apart here.

Regarding calcitonin, in the series with isolated osteoclasts, the cell retraction result is listed as “caused cell retraction”, the cytosolic calcium result is “elevated cytosolic calcium” and the osteoclast motility result is given as “inhibited osteoclast motility”.

For CGRP, the osteoclastic bone resorption entry in the series on rat osteoclasts [1] is recorded as “inhibits osteoclastic bone resorption”. Further, the “effect on plasma calcium” value is “parathyroid hormone-like hypercalcemic effect” in the series on rabbit (rabbit, higher doses); “hypocalcaemic” with rabbit (rabbits, lower doses); “parathyroid hormone-like hypercalcemic effect” with chick.

As to `CC[C@H](C)[C@H](NC(=O)[C@H](C)NC(=O)CNC(=O)[C@H](Cc1ccccc1)NC(=O)[C@H](CC(N)=O)NC(=O)[C@H](CC(N)=O)NC(=O)[C@H](CO)NC(=O)[C@H](CO)NC(=O)[C@H](Cc1c[nH]cn1)NC(=O)[C@@H](NC(=O)[C@H](CC(C)C)NC(=O)[C@H](Cc1ccccc1)NC(=O)[C@H](CC(N)=O)NC(=O)[C@H](C)NC(=O)[C@H](CC(C)C)NC(=O)[C@H](CCCNC(=N)N)NC(=O)[C@H](CCC(N)=O)NC(=O)[C@@H](NC(=O)[C@H](C)NC(=O)[C@@H]1CSSC[C@H](NC(=O)[C@@H](N)CCCCN)C(=O)N[C@@H](CC(N)=O)C(=O)N[C@@H]([C@@H](C)O)C(=O)N[C@@H](C)C(=O)N[C@@H]([C@@H](C)O)C(=O)N1)[C@@H](C)O)C(C)C)C(=O)N[C@@H](CC(C)C)C(=O)N[C@@H](CO)C(=O)N[C@@H](CO)C(=O)N[C@H](C(=O)N[C@@H](CC(N)=O)C(=O)N[C@H](C(=O)NCC(=O)N[C@@H](CO)C(=O)N[C@@H](CC(N)=O)C(=O)N[C@H](C(=O)N[C@@H](Cc1ccc(O)cc1)C(N)=O)[C@@H](C)O)C(C)C)[C@@H](C)O` [amylin], the “osteoclast cell number or viability” value in the series with rat osteoclasts [2] is “without affecting cell number of viability”.
